Results taken from ChEMBL document CHEMBL3822436, “New polyhydroxylated flavon-3-ols and 3-hydroxy-2-styrylchromones: synthesis and ROS/RNS scavenging activities” (Eur J Med Chem, 2016).

Tests used:
Format in all cases: physicochemical
[1] = Antioxidant activity assessed as inhibition of singlet oxygen-induced oxidation of DHR to fluorescent rhodamine-123 measured after 30 mins by fluorescence microplate screening assay; conditions: for inhibition (INH): 0.5 h
[2] = Antioxidant activity assessed as inhibition of peroxynitrite-induced oxidation of DHR to rhodamine-123 measured after 2 mins in presence of NaHCO3 by fluorimetric analysis
[3] = Antioxidant activity assessed as inhibition of nitric oxide-induced oxidation of DAF-2 to DAF-2T measured after 30 mins by fluorimetric analysis
[4] = Antioxidant activity assessed as inhibition of superoxide-induced NBT reduction at 100 uM measured during 2 mins by spectrophotometric analysis
[5] = Antioxidant activity assessed as inhibition of HOCl-induced oxidation of non-fluorescent DHR to fluorescent rhodamine-123 by fluorescence-based assay
[6] = Antioxidant activity assessed as inhibition of peroxynitrite-induced oxidation of DHR to rhodamine-123 measured after 2 mins by fluorimetric analysis
[7] = Antioxidant activity assessed as inhibition of hydrogen peroxide-induced lucigenin oxidation at 1000 uM by chemiluminescence-based assay
[8] = Antioxidant activity assessed as inhibition of superoxide-induced NBT reduction measured during 2 mins by spectrophotometric analysis
[9] = Antioxidant activity assessed as inhibition of peroxynitrite-induced oxidation of DHR to rhodamine-123 at 5 uM measured after 2 mins in presence of NaHCO3 by fluorimetric analysis
[10] = Antioxidant activity assessed as inhibition of peroxyl radical-induced oxidation of fluorescein measured as trolox equivalent by ORAC assay

IC50 [1] [nM] | inhibition (INH) [1] | IC50 [2] [nM] | IC50 [3] [nM] | inhibition (INH) [4] [%] | IC50 [5] [nM] | IC50 [6] [nM] | inhibition (INH) [7] | IC50 [8] [µM] | inhibition (INH) [9] | SMILES | Activity [10] [uMequiv/uM]
1200 | Dose-dependent effect | 1300 | 830 | 49 | 820 | 570 | Not Active | – | – | COc1ccc2c(=O)c(O)c(/C=C/c3ccc(O)c(O)c3)oc2c1OC | –
2400 | Dose-dependent effect | 2500 | 55 | – | 6300 | 710 | Not Active | 21 | – | COc1ccc(-c2oc3c(O)c(O)ccc3c(=O)c2O)cc1OC | –
1000 | Dose-dependent effect | 980 | 670 | – | 1420 | 290 | Not Active | 30 | – | O=c1c(O)c(/C=C/c2ccc(O)c(O)c2)oc2c(O)c(O)ccc12 | –
1000 | Dose-dependent effect | – | 1000 | – | 910 | 570 | Not Active | 35 | Not Active | COc1ccc(/C=C/c2oc3c(O)c(O)ccc3c(=O)c2O)cc1OC | –
4200 | Dose-dependent effect | 930 | 120 | – | 2400 | 910 | Not Active | 19 | – | O=c1c(O)c(-c2ccc(O)c(O)c2)oc2c(O)c(O)ccc12 | –
1300 | Dose-dependent effect | 1030 | 58 | – | 3300 | 590 | Not Active | 58 | – | COc1ccc2c(=O)c(O)c(-c3ccc(O)c(O)c3)oc2c1OC | –

SMILES | IC50 [1] [nM] | inhibition (INH) [1] | IC50 [2] [nM] | IC50 [3] [nM] | inhibition (INH) [4] [%] | IC50 [5] [nM] | IC50 [6] [nM] | inhibition (INH) [7] | IC50 [8] [µM] | inhibition (INH) [9] | Activity [10] [uMequiv/uM]
O=c1c(O)c(-c2ccc(O)c(O)c2)oc2cc(O)cc(O)c12 [QUERCETIN] | – | – | 1100 | – | – | 800 | 760 | Not Active | 67 | – | 0.49
